Reference: patent US20050009005A1, “Methods of using quantitative lipid metabolome data” (Lipomics Technologies, Inc., priority 2001, published 2005)

System: de novo fatty acid synthesis
Assay: Lipid metabolite profile of plasma, heart, liver and inguinal adipose of CL316,243-treated mice (trial 2; Tables 7 and 8)
Assay type: in vivo
Settings: mean
From the text: It is understood that the described methods can be used to analyze lipid metabolites from other subjects, including particularly animals other than mice.
Mouse tissue and plasma samples were a generous donation to Lipomics Technologies, Inc., from Dr. Edward Leiter of the Jackson Laboratory (Bar Harbor, Me.). Samples included the plasma, heart, liver and inguinal adipose of mice treated with pharmaceuticals or their corresponding controls.
In trial 2, male, inbred NON mice were fed a control with or without the presence of the β-3 adrenergic agonist CL316,243 for four weeks (at 0.001% CL316,243 by weight in the dietary chow).
In both studies, five treated and five control mice were used. Following the treatments and the killing of the mice, tissues and plasma were taken, chilled to −80 ° C. and shipped to the analysis laboratory at Lipomics Technologies in a frozen state.
Tissue processing and lipid extraction, including provision of internal standards, was carried out essentially as described in Watkins et al. (J. Lipid Res. Papers in Press, 10.1184/jlf.M200169-JLF200, published August 16, 2002), and in co-owned international application PCT/US02/21426, entitled “GENERATING, VIEWING, INTERPRETING, AND UTILIZING A QUANTITATIVE DATABASE OF METABOLITES,” both of which are incorporated in their entirety herein by reference.
The separation of lipid classes was performed in some instance by preparative thin-layer chromatography (TLC). To remove any residual metal or other damaging contaminants on the TLC plates, each plate was washed prior to use. Washing the plates is a three-step process that involves impregnating each plate with ethylenediamine tetraacetic acid (EDTA) and rinsing the plates once with methanol and once with chloroform. Each plate is first impregnated with 1 mM EDTA, pH 5.5, by ascending development using the method of Ruiz (J. Lipid Res. 38, 1482-1489, 1997). After each plate was completely developed, it was dried in air overnight. Once dry, each plate was developed in methanol, dried, and developed in chloroform in the same direction as the development with EDTA. The washed plates were then dried in air. Just prior to use, each plate was activated by heating to 110° C. for 10 minutes.
To prepare the TLC chamber for chromatography, Whatman (Clifton, N.J.) filter paper was cut into 20×80-cm strips and wrapped around the inside wall of a 30×60×10-cm glass development chamber. One hundred milliliters of the appropriate mobile phase was added to the chamber, and the chambers were sealed and allowed to equilibrate. Chambers were considered equilibrated when the solvent front had completely ascended the filter paper. The mobile phase employed for the separation of phospholipid classes (lyso-phospholipids, sphingomyelin, phosphatidylcholine, phosphatidylserine, phosphatidylethanolamine and cardiolipin) was a modification of the solvent system described by Holub and Skeaf (“Nutritional regulation of cellular phosphatidylinositol,” in Methods in Enzymology, ed. Conn, P. M. (Academic Press, Inc., Orlando), pp. 234-243, 1987) consisting of chloroform/methanol/acetic acid/water (100:67:7:4, by volume).
For the separation of neutral lipid classes (free fatty acids, free sterols, triacylglycerides and cholesterol esters), a solvent system consisting of petroleum ether/diethyl ether/acetic acid (80:20:1, by volume) was used (Mangold, Thin Layer Chromatography—A Laboratory Handbook (Springer-Verlag, New York), 1969).
After the TLC plate was activated, the sample extracts were spotted onto the activated plate. As a general rule, samples were spotted at an estimated concentration such that no single lipid class was present at more than 25 jig per centimeter of plate width following chromatography. This ensured that the plate was not overloaded and minimized the risk of cross-contamination between lipid classes (cross-contamination is readily identified during sample analysis as each lipid class contains unique internal standards). […]

C[C@H](Cc1ccc2c(c1)OC(C(=O)[O-])(C(=O)[O-])O2)NC[C@H](O)c1cccc(Cl)c1.[Na+].[Na+] [CL316,243]
16:0 (Heart, PS/I): 302.1 nanomoles per gram | 16:1n7 (Heart, PS/I): 48.6 nanomoles per gram | 18:0 (Heart, PS/I): 2823.7 nanomoles per gram | 18:1n7 (Heart, PS/I): 73.5 nanomoles per gram | 18:1n9 (Heart, PS/I): 572.9 nanomoles per gram | 14:0 (Heart, TAG): 78.8 nanomoles per gram | 16:0 (Heart, TAG): 651.6 nanomoles per gram | 16:1n7 (Heart, TAG): 57.3 nanomoles per gram | 18:0 (Heart, TAG): 195.5 nanomoles per gram | 18:1n7 (Heart, TAG): 28.0 nanomoles per gram | 18:1n9 (Heart, TAG): 402.8 nanomoles per gram | 14:0 (Heart, lipid class CE): 5.1 percentage of total fatty acids | 16:0 (Heart, lipid class CE): 15.4 percentage of total fatty acids | 16:1n7 (Heart, lipid class CE): 2.9 percentage of total fatty acids | 18:0 (Heart, lipid class CE): 7.0 percentage of total fatty acids | 18:1n7 (Heart, lipid class CE): 1.5 percentage of total fatty acids | 18:1n9 (Heart, lipid class CE): 30.1 percentage of total fatty acids | Saturates (Heart, lipid class CE): 30.3 percentage of total fatty acids | Total (Heart, lipid class CE): 100.0 percentage of total fatty acids | Total n7 (Heart, lipid class CE): 4.4 percentage of total fatty acids | Total n9 (Heart, lipid class CE): 31.5 percentage of total fatty acids | 14:0 (Heart, lipid class CL): 0.6 percentage of total fatty acids | 16:0 (Heart, lipid class CL): 2.0 percentage of total fatty acids | 16:1n7 (Heart, lipid class CL): 1.7 percentage of total fatty acids | 18:0 (Heart, lipid class CL): 3.3 percentage of total fatty acids | 18:1n7 (Heart, lipid class CL): 3.2 percentage of total fatty acids | 18:1n9 (Heart, lipid class CL): 8.0 percentage of total fatty acids | Saturates (Heart, lipid class CL): 6.5 percentage of total fatty acids | Total (Heart, lipid class CL): 25.0 percentage of total fatty acids | Total n7 (Heart, lipid class CL): 4.9 percentage of total fatty acids | Total n9 (Heart, lipid class CL): 8.5 percentage of total fatty acids | 14:0 (Heart, lipid class FFA): 2.9 percentage of total fatty acids | 16:0 (Heart, lipid class FFA): 17.8 percentage of total fatty acids | 16:1n7 (Heart, lipid class FFA): 2.3 percentage of total fatty acids | 18:0 (Heart, lipid class FFA): 7.4 percentage of total fatty acids | 18:1n7 (Heart, lipid class FFA): 2.2 percentage of total fatty acids | 18:1n9 (Heart, lipid class FFA): 29.9 percentage of total fatty acids | Saturates (Heart, lipid class FFA): 29.2 percentage of total fatty acids | Total (Heart, lipid class FFA): 100.0 percentage of total fatty acids | Total n7 (Heart, lipid class FFA): 4.5 percentage of total fatty acids | Total n9 (Heart, lipid class FFA): 30.8 percentage of total fatty acids | 14:0 (Heart, lipid class PC): 0.3 percentage of total fatty acids | 16:0 (Heart, lipid class PC): 26.9 percentage of total fatty acids | 16:1n7 (Heart, lipid class PC): 0.4 percentage of total fatty acids | 18:0 (Heart, lipid class PC): 17.4 percentage of total fatty acids | 18:1n7 (Heart, lipid class PC): 1.9 percentage of total fatty acids | 18:1n9 (Heart, lipid class PC): 6.6 percentage of total fatty acids | Saturates (Heart, lipid class PC): 45.0 percentage of total fatty acids | Total (Heart, lipid class PC): 50.0 percentage of total fatty acids | Total n7 (Heart, lipid class PC): 2.2 percentage of total fatty acids | Total n9 (Heart, lipid class PC): 6.8 percentage of total fatty acids | 14:0 (Heart, lipid class PE): 0.1 percentage of total fatty acids | 16:0 (Heart, lipid class PE): 9.3 percentage of total fatty acids | 16:1n7 (Heart, lipid class PE): 0.3 percentage of total fatty acids | 18:0 (Heart, lipid class PE): 26.7 percentage of total fatty acids | 18:1n7 (Heart, lipid class PE): 1.3 percentage of total fatty acids | 18:1n9 (Heart, lipid class PE): 4.8 percentage of total fatty acids | Saturates (Heart, lipid class PE): 36.5 percentage of total fatty acids | Total (Heart, lipid class PE): 50.0 percentage of total fatty acids | Total n7 (Heart, lipid class PE): 1.6 percentage of total fatty acids | Total n9 (Heart, lipid class PE): 5.0 percentage of total fatty acids | 14:0 (Heart, lipid class PL): 0.3 percentage of total fatty acids | 16:0 (Heart, lipid class PL): 16.0 percentage of total fatty acids | 16:1n7 (Heart, lipid class PL): 0.5 percentage of total fatty acids | 18:0 (Heart, lipid class PL): 19.8 percentage of total fatty acids | 18:1n7 (Heart, lipid class PL): 1.8 percentage of total fatty acids | 18:1n9 (Heart, lipid class PL): 6.1 percentage of total fatty acids | Saturates (Heart, lipid class PL): 37.0 percentage of total fatty acids | Total (Heart, lipid class PL): 50.0 percentage of total fatty acids | Total n7 (Heart, lipid class PL): 2.3 percentage of total fatty acids | Total n9 (Heart, lipid class PL): 6.5 percentage of total fatty acids | 14:0 (Heart, lipid class PS/I): 0.4 percentage of total fatty acids | 16:0 (Heart, lipid class PS/I): 3.5 percentage of total fatty acids | 16:1n7 (Heart, lipid class PS/I): 0.6 percentage of total fatty acids | 18:0 (Heart, lipid class PS/I): 33.1 percentage of total fatty acids | 18:1n7 (Heart, lipid class PS/I): 0.9 percentage of total fatty acids | 18:1n9 (Heart, lipid class PS/I): 6.7 percentage of total fatty acids | Saturates (Heart, lipid class PS/I): 38.0 percentage of total fatty acids | Total (Heart, lipid class PS/I): 50.0 percentage of total fatty acids | Total n7 (Heart, lipid class PS/I): 1.4 percentage of total fatty acids | Total n9 (Heart, lipid class PS/I): 7.1 percentage of total fatty acids | 14:0 (Heart, lipid class TAG): 4.1 percentage of total fatty acids | 16:0 (Heart, lipid class TAG): 34.2 percentage of total fatty acids | 16:1n7 (Heart, lipid class TAG): 2.9 percentage of total fatty acids | 18:0 (Heart, lipid class TAG): 10.1 percentage of total fatty acids | 18:1n7 (Heart, lipid class TAG): 1.5 percentage of total fatty acids | 18:1n9 (Heart, lipid class TAG): 21.5 percentage of total fatty acids | Saturates (Heart, lipid class TAG): 51.9 percentage of total fatty acids | Total (Heart, lipid class TAG): 33.3 percentage of total fatty acids | Total n7 (Heart, lipid class TAG): 4.4 percentage of total fatty acids | Total n9 (Heart, lipid class TAG): 22.9 percentage of total fatty acids | 14:0 (Liver, CE): 45.5 nanomoles per gram | 16:0 (Liver, CE): 462.8 nanomoles per gram | 16:1n7 (Liver, CE): 84.4 nanomoles per gram | 18:0 (Liver, CE): 121.3 nanomoles per gram | 18:1n7 (Liver, CE): 31.5 nanomoles per gram | 18:1n9 (Liver, CE): 455.4 nanomoles per gram | Saturates (Liver, CE): 668.6 nanomoles per gram | Total n7 (Liver, CE): 115.9 nanomoles per gram | Total n9 (Liver, CE): 482.4 nanomoles per gram | Total nMole of FA (Liver, CE): 1764.6 nanomoles per gram | 14:0 (Liver, CL): 21.3 nanomoles per gram | 16:0 (Liver, CL): 254.3 nanomoles per gram | 16:1n7 (Liver, CL): 85.8 nanomoles per gram | 18:0 (Liver, CL): 260.0 nanomoles per gram | 18:1n7 (Liver, CL): 215.4 nanomoles per gram | 18:1n9 (Liver, CL): 437.0 nanomoles per gram | Saturates (Liver, CL): 556.4 nanomoles per gram | Total n7 (Liver, CL): 301.2 nanomoles per gram | Total n9 (Liver, CL): 473.0 nanomoles per gram | Total nMole of FA (Liver, CL): 1255.5 nanomoles per gram | 14:0 (Liver, FFA): 152.9 nanomoles per gram | 16:0 (Liver, FFA): 2280.7 nanomoles per gram | 16:1n7 (Liver, FFA): 375.0 nanomoles per gram | 18:0 (Liver, FFA): 460.2 nanomoles per gram | 18:1n7 (Liver, FFA): 273.5 nanomoles per gram | 18:1n9 (Liver, FFA): 2293.4 nanomoles per gram | Saturates (Liver, FFA): 2951.3 nanomoles per gram | Total n7 (Liver, FFA): 648.5 nanomoles per gram | Total n9 (Liver, FFA): 2337.2 nanomoles per gram
